Reference: the NIST ThermoML archive (doi:10.1016/j.fluid.2005.05.012)
Where “and” joins values, the source holds several entries; their conditions need not be identical. Equal entries are not always repeated.

Columns and labels:
[1] = 101.33 kPa, Liquid
[2] = xn = mol fraction of the nth substance listed; conditions: 101.33 kPa, Liquid

CO [methanol]
[1]
Conditions | mass density [kg/m3] | viscosity [mPa·s]
293.15 K | 791.09 | 0.593
298.15 K | 786.48 | 0.551
303.15 K | 781.22 | 0.509

CCCO [propan-1-ol]
[1]
Conditions | mass density [kg/m3] | viscosity [mPa·s]
293.15 K | 803.79 | 2.194
298.15 K | 799.74 | 1.945
303.15 K | 795.68 | 1.73

CC(C)CO [2-methyl-1-propanol]
[1]
Conditions | mass density [kg/m3] | viscosity [mPa·s]
293.15 K | 801.58 | 3.994
298.15 K | 798.09 | 3.334
303.15 K | 794.09 | 2.794

CC(C)O [propan-2-ol]
[1]
Conditions | mass density [kg/m3] | viscosity [mPa·s]
293.15 K | 785.84 | 2.405
298.15 K | 781.3 | 2.062
303.15 K | 777.41 | 1.782

CN1CCNCC1 [N-methylpiperazine]
[1]
Conditions | mass density | viscosity [mPa·s]
293.15 K | 903.8 kg/m3 and 903.79 kg/m3 and 903.78 kg/m3 | 2.1
298.15 K | 899.8 kg/m3 | 1.841
303.15 K | 894.52 kg/m3 and 894.54 kg/m3 and 894.55 kg/m3 | 1.624

CN1CCNCC1 [N-methylpiperazine] + CO
[2]
Conditions | mass density, 293.15 K [kg/m3] | mass density, 298.15 K [kg/m3] | mass density, 303.15 K [kg/m3] | viscosity, 293.15 K [mPa·s] | viscosity, 298.15 K [mPa·s] | viscosity, 303.15 K [mPa·s]
x2 = 0 | 903.8 | 899.8 | 894.52 | 2.1 | 1.841 | 1.624
x2 = 0.1021 | 902.85 | 899.04 | 893.84 | 2.103 | 1.849 | 1.643
x2 = 0.1999 | 901.87 | 898.08 | 892.86 | 2.147 | 1.897 | 1.692
x2 = 0.3286 | 899.35 | 895.54 | 890.39 | 2.167 | 1.924 | 1.722
x2 = 0.4143 | 896.64 | 892.82 | 887.8 | 2.141 | 1.897 | 1.676
x2 = 0.4991 | 892.94 | 889.13 | 884.25 | 2.04 | 1.8 | 1.61
x2 = 0.6016 | 886.48 | 882.68 | 877.91 | 1.875 | 1.654 | 1.475
x2 = 0.6999 | 876.84 | 873 | 868.21 | 1.62 | 1.447 | 1.299
x2 = 0.7998 | 860.91 | 856.96 | 851.99 | 1.306 | 1.169 | 1.06
x2 = 0.8999 | 834.46 | 830.26 | 825.04 | 0.935 | 0.854 | 0.788

CN1CCNCC1 [N-methylpiperazine] + CCO
[2]
Conditions | mass density, 293.15 K [kg/m3] | mass density, 298.15 K [kg/m3] | mass density, 303.15 K [kg/m3] | viscosity, 293.15 K [mPa·s] | viscosity, 298.15 K [mPa·s] | viscosity, 303.15 K [mPa·s]
x2 = 0 | 903.79 | 899.8 | 894.54 | 2.1 | 1.841 | 1.624
x2 = 0.1002 | 900.18 | 896.19 | 891.01 | 2.141 | 1.87 | 1.65
x2 = 0.1994 | 896.41 | 892.42 | 887.31 | 2.206 | 1.924 | 1.694
x2 = 0.3003 | 891.73 | 887.75 | 882.73 | 2.27 | 1.977 | 1.741
x2 = 0.3493 | 889.02 | 885.06 | 880.09 | 2.285 | 1.992 | 1.753
x2 = 0.4021 | 885.73 | 881.8 | 876.89 | 2.301 | 2.009 | 1.771
x2 = 0.451 | 882.31 | 878.41 | 873.55 | 2.288 | 2.001 | 1.764
x2 = 0.5004 | 878.44 | 874.56 | 869.77 | 2.267 | 1.977 | 1.746
x2 = 0.5994 | 869.22 | 865.36 | 860.68 | 2.175 | 1.909 | 1.698
x2 = 0.7011 | 857.04 | 853.14 | 848.58 | 1.996 | 1.772 | 1.595
x2 = 0.8003 | 841.28 | 837.28 | 832.81 | 1.779 | 1.591 | 1.429
x2 = 0.8982 | 820.12 | 815.97 | 811.57 | 1.526 | 1.366 | 1.239

CCCCO [butan-1-ol]
[1]
Conditions | mass density [kg/m3] | viscosity [mPa·s]
293.15 K | 809.97 | 2.938
298.15 K | 806.15 | 2.572
303.15 K | 802.14 | 2.271

CCO [ethanol]
[1]
Conditions | mass density [kg/m3] | viscosity [mPa·s]
293.15 K | 789.32 | 1.17
298.15 K | 785.06 | 1.078
303.15 K | 780.68 | 0.982
